Measured values as given in US20220281848A1, “PYRAZOLE-SUBSTITUTED PYRROLIDINONES AS HERBICIDES” (FMC Corporation, priority 2019, published 2022).

Tested on: plants
Test: Test D pre-emergence, other plants of Tables D1 and D3
Type: in vivo
Conditions: pre-emergence, 100=total damage, 0=no damage
How it was run: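 Damage was rated visually from 0 (none) to 100 (total), at 20 DAA for pre-emergence and 15 d for post-emergence. Plants grew from safener-treated seed in a glasshouse at 24/18° C. or 20/16° C. day/night, 65% humidity, watered twice daily.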

## CN1CC(c2cc(C(F)(F)F)n(C)n2)C(C(=O)Nc2ccc(F)nc2F)C1=O (racemic) [Compound 22]
Rate 15, 20 DAA
  damage to plant, ALOMY: 0
  damage to plant, AVEFA: 0
  damage to plant, BEAVA: 0
  damage to plant, BROTE: 0
  damage to plant, BRSNN: 0
  damage to plant, CHEAL: 0
  damage to plant, GALAP: 0
  damage to plant, HORVW: 0
  damage to plant, KCHSC: 0
  damage to plant, LOLPE: 0
  damage to plant, POAAN: 0
  damage to plant, POLCO: 0
  damage to plant, SINAR: 0
  damage to plant, STEME: 0
  damage to plant, VERPE: 0
Rate 30, 20 DAA
  damage to plant, ALOMY: 0
  damage to plant, AVEFA: 0
  damage to plant, BEAVA: 0
  damage to plant, BROTE: 0
  damage to plant, BRSNN: 0
  damage to plant, CHEAL: 0
  damage to plant, GALAP: 0
  damage to plant, HORVW: 0
  damage to plant, KCHSC: 0
  damage to plant, LOLPE: 0
  damage to plant, POAAN: 0
  damage to plant, POLCO: 0
  damage to plant, SINAR: 0
  damage to plant, STEME: 0
  damage to plant, VERPE: 0
Rate 60, 20 DAA
  damage to plant, ALOMY: 0
  damage to plant, AVEFA: 0
  damage to plant, BEAVA: 0
  damage to plant, BROTE: 0
  damage to plant, BRSNN: 0
  damage to plant, CHEAL: 20
  damage to plant, GALAP: 0
  damage to plant, HORVW: 0
  damage to plant, KCHSC: 0
  damage to plant, LOLPE: 0
  damage to plant, POAAN: 0
  damage to plant, POLCO: 0
  damage to plant, SINAR: 0
  damage to plant, STEME: 10
  damage to plant, VERPE: 0
Rate 130, 20 DAA
  damage to plant, ALOMY: 0
  damage to plant, AVEFA: 0
  damage to plant, BEAVA: 0
  damage to plant, BROTE: 0
  damage to plant, BRSNN: 0
  damage to plant, CHEAL: 10
  damage to plant, GALAP: 0
  damage to plant, HORVW: 0
  damage to plant, KCHSC: 0
  damage to plant, LOLPE: 10
  damage to plant, POAAN: 20
  damage to plant, POLCO: 0
  damage to plant, SINAR: 0
  damage to plant, STEME: 10
  damage to plant, VERPE: 20
Rate 250, 20 DAA
  damage to plant, ALOMY: 0
  damage to plant, AVEFA: 0
  damage to plant, BEAVA: 0
  damage to plant, BROTE: 0
  damage to plant, BRSNN: 0
  damage to plant, CHEAL: 80
  damage to plant, GALAP: 0
  damage to plant, HORVW: 0
  damage to plant, KCHSC: 0
  damage to plant, LOLPE: 20
  damage to plant, POAAN: 40
  damage to plant, POLCO: 10
  damage to plant, SINAR: 0
  damage to plant, STEME: 30
  damage to plant, VERPE: 30
Rate 500, 20 DAA
  damage to plant, ALOMY: 20
  damage to plant, AVEFA: 0
  damage to plant, BEAVA: 0
  damage to plant, BROTE: 0
  damage to plant, BRSNN: 0
  damage to plant, CHEAL: 40
  damage to plant, GALAP: 0
  damage to plant, HORVW: 0
  damage to plant, KCHSC: 0
  damage to plant, LOLPE: 30
  damage to plant, POAAN: 60
  damage to plant, POLCO: 20
  damage to plant, SINAR: 0
  damage to plant, STEME: 40
  damage to plant, VERPE: 100
